Reference: ChEMBL document CHEMBL5260810, “Inhibition of bromodomain-containing protein 9 for the prevention of epigenetically-defined drug resistance” (Bioorg Med Chem Lett, 2017)

What was measured:
[1] = molecular target: Proto-oncogene tyrosine-protein kinase Src (Homo sapiens) (UniProt P12931); test: Inhibition of Src (unknown origin) at 1 uM relative to control
[2] = Cytotoxicity against human NCI-H2106 cells measured after 8 days; type: functional, cell-based; conditions: NCI-H2106, 192 h
MC116 = test: Cytotoxicity against human MC116 cells measured after 8 days; type: functional, cell-based; conditions: MC116, 192 h
HCC1143 = test: Cytotoxicity against human HCC1143 cells measured after 8 days; type: functional, cell-based; conditions: HCC1143, 192 h
SKM-1 = test: Cytotoxicity against human SKM-1 cells measured after 8 days; type: functional, cell-based; conditions: SKM-1, 192 h
[3] = Cytotoxicity against human NCI-H2110 cells measured after 8 days; type: functional, cell-based; conditions: NCI-H2110, 192 h
[4] = molecular target: Tyrosine-protein kinase JAK1 (Homo sapiens) (UniProt P23458); test: Inhibition of JAK1 (unknown origin) at 1 uM relative to control
IGR-37 cell line = test: Cytotoxicity against human IGR-37 cell line measured after 8 days; type: functional, cell-based; conditions: IGR-37, 192 h
EB2 = test: Cytotoxicity against human EB2 cells measured after 8 days; type: functional, cell-based; conditions: EB2, 192 h
[5] = Cytotoxicity against human NCE-G 111 cells measured after 8 days; type: functional, cell-based; conditions: NCE-G 111, 192 h
PC-3 = test: Cytotoxicity against human PC-3 cells measured after 8 days; type: functional, cell-based; conditions: PC-3, 192 h
NCI-H358 = test: Cytotoxicity against human NCI-H358 cells measured after 8 days; type: functional, cell-based; conditions: NCI-H358, 192 h
HCC95 = test: Cytotoxicity against human HCC95 cells measured after 8 days; type: functional, cell-based; conditions: HCC95, 192 h
[6] = molecular target: Histone acetyltransferase KAT2A (Homo sapiens, UniProt Q92830); test: Binding affinity to human partial length GCN5L2 (E726 to K837 residues) expressed in bacterial expression system by BROMOscan assay
Histone acetyltransferase KAT2A, sequence (Q92830 whole entry, the tested form may be a part): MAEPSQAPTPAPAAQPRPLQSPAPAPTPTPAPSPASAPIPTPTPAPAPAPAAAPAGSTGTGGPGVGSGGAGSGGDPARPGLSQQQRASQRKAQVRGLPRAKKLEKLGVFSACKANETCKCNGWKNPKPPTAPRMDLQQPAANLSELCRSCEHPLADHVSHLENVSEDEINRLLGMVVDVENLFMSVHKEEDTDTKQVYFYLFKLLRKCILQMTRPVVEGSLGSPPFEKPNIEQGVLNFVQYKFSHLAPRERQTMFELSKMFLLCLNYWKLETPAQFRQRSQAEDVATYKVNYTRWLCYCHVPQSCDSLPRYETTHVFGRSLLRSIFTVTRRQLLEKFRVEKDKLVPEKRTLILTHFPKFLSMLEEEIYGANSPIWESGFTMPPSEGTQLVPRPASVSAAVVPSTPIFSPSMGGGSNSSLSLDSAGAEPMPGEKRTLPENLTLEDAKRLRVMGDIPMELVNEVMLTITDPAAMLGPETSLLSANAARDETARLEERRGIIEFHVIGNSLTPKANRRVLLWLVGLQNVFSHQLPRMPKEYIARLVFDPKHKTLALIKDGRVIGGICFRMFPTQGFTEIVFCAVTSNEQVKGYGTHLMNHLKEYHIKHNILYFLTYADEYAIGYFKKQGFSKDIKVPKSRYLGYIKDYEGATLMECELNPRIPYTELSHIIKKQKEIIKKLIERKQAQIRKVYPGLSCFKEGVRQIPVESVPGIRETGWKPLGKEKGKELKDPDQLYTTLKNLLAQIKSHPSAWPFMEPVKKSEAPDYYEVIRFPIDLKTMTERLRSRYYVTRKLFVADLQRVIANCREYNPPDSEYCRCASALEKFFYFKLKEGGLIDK

Daudi = test: Cytotoxicity against human Daudi cells measured after 8 days; type: functional, cell-based; conditions: 192 h
SK-MEL-28 = test: Cytotoxicity against human SK-MEL-28 cells measured after 8 days; type: functional, cell-based; conditions: SK-MEL-28, 192 h
NCI-H727 = test: Cytotoxicity against human NCI-H727 cells measured after 8 days; type: functional, cell-based; conditions: NCI-H727, 192 h
LNCaP = test: Cytotoxicity against human LNCaP/Ner cells measured after 8 days; type: functional, cell-based; conditions: 192 h
[7] = molecular target: Bromodomain testis-specific protein (Homo sapiens, UniProt Q58F21); test: Binding affinity to BRDT bromodomain 1/2 (unknown origin) by BROMOscan assay
SUD4 = test: Cytotoxicity against human SU-DHL-4 cells measured after 8 days; type: functional, cell-based; conditions: SU-DHL-4, 192 h
DB = test: Cytotoxicity against human DB cells measured after 8 days; type: functional, cell-based; conditions: 192 h
Protein polybromo-1 = Protein polybromo-1 (Homo sapiens, UniProt Q86U86); test: Binding affinity to human partial length PBRM1 bromodomain 5 (S645 to D766 residues) expressed in bacterial expression system by BROMOscan assay
Protein polybromo-1, sequence (Q86U86 whole entry, the tested form may be a part): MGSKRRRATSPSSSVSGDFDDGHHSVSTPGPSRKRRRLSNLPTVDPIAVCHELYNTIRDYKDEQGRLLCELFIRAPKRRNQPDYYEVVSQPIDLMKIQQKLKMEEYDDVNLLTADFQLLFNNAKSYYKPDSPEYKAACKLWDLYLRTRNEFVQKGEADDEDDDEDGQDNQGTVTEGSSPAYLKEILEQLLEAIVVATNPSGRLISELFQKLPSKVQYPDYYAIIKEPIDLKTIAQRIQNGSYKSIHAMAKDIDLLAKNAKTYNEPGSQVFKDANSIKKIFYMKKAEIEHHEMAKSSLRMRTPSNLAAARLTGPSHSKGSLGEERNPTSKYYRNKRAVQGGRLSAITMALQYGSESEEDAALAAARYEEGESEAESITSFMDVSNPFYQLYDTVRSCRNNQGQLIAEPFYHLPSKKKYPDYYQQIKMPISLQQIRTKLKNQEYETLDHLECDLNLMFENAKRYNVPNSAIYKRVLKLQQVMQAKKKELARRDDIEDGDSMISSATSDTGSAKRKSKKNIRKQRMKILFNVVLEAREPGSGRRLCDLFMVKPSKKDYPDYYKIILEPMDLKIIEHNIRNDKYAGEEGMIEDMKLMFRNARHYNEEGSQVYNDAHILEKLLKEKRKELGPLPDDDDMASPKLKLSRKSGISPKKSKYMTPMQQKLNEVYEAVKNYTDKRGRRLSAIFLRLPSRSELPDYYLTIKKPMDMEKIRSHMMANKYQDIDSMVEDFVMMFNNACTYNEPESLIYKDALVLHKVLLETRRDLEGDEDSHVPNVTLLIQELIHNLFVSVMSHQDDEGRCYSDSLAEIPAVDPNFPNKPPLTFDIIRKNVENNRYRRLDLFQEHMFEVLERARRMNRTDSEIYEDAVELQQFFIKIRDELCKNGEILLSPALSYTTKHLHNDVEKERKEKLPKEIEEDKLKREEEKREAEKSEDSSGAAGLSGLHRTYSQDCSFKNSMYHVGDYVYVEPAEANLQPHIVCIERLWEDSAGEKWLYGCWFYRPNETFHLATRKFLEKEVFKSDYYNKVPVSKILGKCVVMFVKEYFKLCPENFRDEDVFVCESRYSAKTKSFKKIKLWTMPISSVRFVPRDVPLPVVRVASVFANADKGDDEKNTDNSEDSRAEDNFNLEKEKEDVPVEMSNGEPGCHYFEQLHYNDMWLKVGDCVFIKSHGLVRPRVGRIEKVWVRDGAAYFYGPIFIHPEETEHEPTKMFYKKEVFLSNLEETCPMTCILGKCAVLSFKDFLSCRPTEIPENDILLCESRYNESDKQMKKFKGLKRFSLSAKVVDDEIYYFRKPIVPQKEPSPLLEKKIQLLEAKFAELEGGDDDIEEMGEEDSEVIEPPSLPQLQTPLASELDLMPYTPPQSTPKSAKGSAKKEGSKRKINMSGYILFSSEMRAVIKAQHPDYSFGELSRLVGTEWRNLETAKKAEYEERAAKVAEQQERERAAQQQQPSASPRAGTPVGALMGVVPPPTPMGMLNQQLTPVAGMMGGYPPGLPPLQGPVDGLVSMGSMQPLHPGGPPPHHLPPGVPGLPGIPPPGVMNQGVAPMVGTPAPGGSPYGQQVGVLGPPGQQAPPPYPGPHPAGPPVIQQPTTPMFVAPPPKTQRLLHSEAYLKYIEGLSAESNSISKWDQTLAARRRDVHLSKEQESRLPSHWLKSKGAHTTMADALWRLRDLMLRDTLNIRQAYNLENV

[8] = molecular target: Beta-1 adrenergic receptor (Homo sapiens) (UniProt P08588); test: Displacement of [3H](-)CGP 12177 from human beta1 adrenoceptor at 10 uM after 60 mins by scintillation counting analysis relative to control
Beta-1 adrenergic receptor (Homo sapiens), sequence (P08588 whole entry, looked up): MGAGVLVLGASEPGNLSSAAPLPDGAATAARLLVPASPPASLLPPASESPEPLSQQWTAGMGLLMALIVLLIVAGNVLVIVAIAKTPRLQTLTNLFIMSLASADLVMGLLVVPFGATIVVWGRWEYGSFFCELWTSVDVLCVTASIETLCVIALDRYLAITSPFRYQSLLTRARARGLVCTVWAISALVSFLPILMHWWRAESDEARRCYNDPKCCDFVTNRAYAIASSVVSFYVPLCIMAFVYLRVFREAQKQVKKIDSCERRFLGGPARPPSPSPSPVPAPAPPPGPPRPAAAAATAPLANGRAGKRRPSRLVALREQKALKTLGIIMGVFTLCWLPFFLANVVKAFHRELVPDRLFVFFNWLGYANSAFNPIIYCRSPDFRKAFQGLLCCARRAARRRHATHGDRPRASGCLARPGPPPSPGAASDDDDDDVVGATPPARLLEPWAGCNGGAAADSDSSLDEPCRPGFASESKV

[9] = Cytotoxicity against human OVCAR433 cells measured after 8 days; type: functional, cell-based; conditions: OVCAR433, 192 h
[10] = Cytotoxicity against human HNT-34 cells measured after 8 days; type: functional, cell-based; conditions: HNT-34, 192 h
HCC78 = test: Cytotoxicity against human HCC78 cells measured after 8 days; type: functional, cell-based; conditions: HCC78, 192 h
[11] = molecular target: T1, Adenosine receptor A1 (Homo sapiens) (UniProt P30542); test: Displacement of [3H]-DPCPX from human recombinant adenosine A1 receptor at 10 uM after 60 mins by scintillation counting analysis relative to control
T1 sequence (whole entry): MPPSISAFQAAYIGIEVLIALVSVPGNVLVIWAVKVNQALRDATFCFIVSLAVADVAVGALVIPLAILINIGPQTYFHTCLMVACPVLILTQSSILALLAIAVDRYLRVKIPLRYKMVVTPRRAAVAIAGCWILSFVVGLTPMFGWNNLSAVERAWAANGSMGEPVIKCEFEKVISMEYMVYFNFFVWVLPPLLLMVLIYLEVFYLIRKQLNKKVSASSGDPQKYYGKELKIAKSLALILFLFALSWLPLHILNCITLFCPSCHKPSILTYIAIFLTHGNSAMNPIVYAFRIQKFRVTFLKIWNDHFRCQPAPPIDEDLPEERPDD

[12] = Cytotoxicity against human HCA7 cells measured after 8 days; type: functional, cell-based; conditions: HCA-7, 192 h
[13] = molecular target: Insulin receptor (Homo sapiens) (UniProt P06213); test: Inhibition of InsR (unknown origin) at 1 uM relative to control
Insulin receptor (Homo sapiens), sequence (P06213 28-758 limits assumed): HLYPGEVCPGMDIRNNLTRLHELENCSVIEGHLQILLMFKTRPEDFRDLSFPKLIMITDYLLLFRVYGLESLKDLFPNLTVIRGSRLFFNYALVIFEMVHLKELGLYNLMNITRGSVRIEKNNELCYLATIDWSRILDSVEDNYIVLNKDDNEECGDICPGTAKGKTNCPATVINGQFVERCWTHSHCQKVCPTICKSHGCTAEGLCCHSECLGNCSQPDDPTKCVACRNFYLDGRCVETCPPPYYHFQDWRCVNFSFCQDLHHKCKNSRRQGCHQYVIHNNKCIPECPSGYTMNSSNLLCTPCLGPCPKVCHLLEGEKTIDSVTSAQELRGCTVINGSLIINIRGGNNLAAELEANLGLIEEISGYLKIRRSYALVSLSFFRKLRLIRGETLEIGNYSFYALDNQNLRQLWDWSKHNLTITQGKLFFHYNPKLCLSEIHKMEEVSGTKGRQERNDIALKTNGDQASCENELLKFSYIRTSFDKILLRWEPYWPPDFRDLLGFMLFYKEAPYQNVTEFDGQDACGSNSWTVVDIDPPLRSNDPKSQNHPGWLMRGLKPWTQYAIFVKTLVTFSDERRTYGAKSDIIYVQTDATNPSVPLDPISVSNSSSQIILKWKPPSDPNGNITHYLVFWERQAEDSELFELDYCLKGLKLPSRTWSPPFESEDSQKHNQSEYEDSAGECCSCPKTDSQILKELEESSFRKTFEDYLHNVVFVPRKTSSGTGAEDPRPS
Insulin receptor (Homo sapiens), sequence (P06213 763-1382 limits assumed): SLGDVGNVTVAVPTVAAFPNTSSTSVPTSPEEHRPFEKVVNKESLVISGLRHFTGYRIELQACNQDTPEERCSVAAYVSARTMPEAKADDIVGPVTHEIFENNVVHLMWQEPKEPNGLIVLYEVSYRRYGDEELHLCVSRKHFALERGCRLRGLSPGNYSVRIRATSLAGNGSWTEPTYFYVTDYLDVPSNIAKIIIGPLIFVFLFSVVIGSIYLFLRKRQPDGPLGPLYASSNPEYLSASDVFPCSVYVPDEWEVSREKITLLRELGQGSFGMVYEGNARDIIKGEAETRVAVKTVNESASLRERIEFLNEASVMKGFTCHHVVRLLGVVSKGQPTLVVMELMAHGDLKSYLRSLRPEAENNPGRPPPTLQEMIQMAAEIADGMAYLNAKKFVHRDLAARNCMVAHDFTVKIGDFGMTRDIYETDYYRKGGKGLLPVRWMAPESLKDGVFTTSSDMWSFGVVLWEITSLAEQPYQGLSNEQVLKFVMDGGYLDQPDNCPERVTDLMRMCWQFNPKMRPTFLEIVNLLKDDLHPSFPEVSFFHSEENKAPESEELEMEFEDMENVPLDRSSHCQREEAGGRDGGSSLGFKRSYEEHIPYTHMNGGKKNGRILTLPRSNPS

CAL-51 = test: Cytotoxicity against human CAL-51 cells measured after 8 days; type: functional, cell-based; conditions: CAL-51, 192 h
[14] = Cytotoxicity against human HCC461 cells measured after 8 days; type: functional, cell-based; conditions: HCC461, 192 h
[15] = Cytotoxicity against human HS-Sultan cells measured after 8 days; type: functional, cell-based; conditions: 192 h
NCI-H226 = test: Cytotoxicity against human NCI-H226 cells measured after 8 days; type: functional, cell-based; conditions: NCI-H226, 192 h
MDA-MB-231 = test: Cytotoxicity against human MDA-MB-231 cells measured after 8 days; type: functional, cell-based; conditions: MDA-MB-231, 192 h
[16] = Cytotoxicity against human KPL-1 cells measured after 8 days; type: functional, cell-based; conditions: KPL-1, 192 h
MFM-223 = test: Cytotoxicity against human MFM-223 cells measured after 8 days; type: functional, cell-based; conditions: MFM-223, 192 h
[17] = Cytotoxicity against human NCI-H2803 cells measured after 8 days; type: functional, cell-based; conditions: NCI-H2803, 192 h
[18] = molecular target: Bromodomain-containing protein 4 (Homo sapiens, UniProt O60885); test: Displacement of biotinylated small-molecule ligand from recombinant His-tagged BRD4 bromodomain 1 (unknown origin) measured after 10 mins by TR-FRET assay
[19] = Cytotoxicity against human KMS-27 cells measured after 8 days; type: functional, cell-based; conditions: KMS-27, 192 h
[20] = Cytotoxicity against human VMRC-LCD cells measured after 8 days; type: functional, cell-based; conditions: 192 h

Proto-oncogene tyrosine-protein kinase Src (Homo sapiens), sequence (P12931 2-536 limits assumed): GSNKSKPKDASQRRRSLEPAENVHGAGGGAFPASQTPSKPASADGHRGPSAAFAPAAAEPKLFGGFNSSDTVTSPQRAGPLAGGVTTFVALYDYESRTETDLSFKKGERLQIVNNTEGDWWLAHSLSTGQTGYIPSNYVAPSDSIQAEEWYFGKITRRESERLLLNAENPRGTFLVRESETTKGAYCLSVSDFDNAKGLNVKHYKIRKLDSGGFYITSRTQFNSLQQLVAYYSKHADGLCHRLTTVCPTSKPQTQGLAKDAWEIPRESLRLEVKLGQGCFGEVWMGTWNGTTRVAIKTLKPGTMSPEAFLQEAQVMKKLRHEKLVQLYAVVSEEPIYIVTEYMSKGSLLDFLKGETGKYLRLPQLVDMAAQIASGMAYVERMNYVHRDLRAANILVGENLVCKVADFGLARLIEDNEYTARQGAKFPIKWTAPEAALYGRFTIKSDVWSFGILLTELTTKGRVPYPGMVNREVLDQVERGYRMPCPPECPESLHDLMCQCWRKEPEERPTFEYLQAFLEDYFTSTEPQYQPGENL

Structure (SMILES)	inhibition [1]	IC50 [2]	IC50 (MC116)	IC50 (HCC1143)	IC50 (SKM-1)	IC50 [3]	inhibition [4]	IC50 (IGR-37 cell line)	IC50 (EB2)	IC50 [5]	IC50 (PC-3)	IC50 (NCI-H358)	IC50 (HCC95)	Kd [6]	IC50 (Daudi)	IC50 (SK-MEL-28)	IC50 (NCI-H727)	Kd [7]	Kd (Protein polybromo-1)	IC50 [18]	further results
C/C=C/Cn1cc(-c2ccc(C(C)(C)O)cc2OC)c2cc[nH]c2c1=O	4.5%	20 µM	4.97 µM	20 µM	20 µM	20 µM	-2.5%	20 µM	20 µM	20 µM	20 µM	20 µM	20 µM	0.41 µM	3.77 µM	20 µM	20 µM	1.2 µM	> 10 µM	5.1 µM	IC50 (LNCaP): 17.8 µM; IC50 (SUD4): 8.59 µM; IC50 (DB): 16.9 µM; Activity [8]: 11%; IC50 [9]: 20 µM; IC50 [10]: 8.14 µM; IC50 (HCC78): 20 µM; Activity [11]: 8%; IC50 [12]: 20 µM; inhibition [13]: 4.5%; IC50 (CAL-51): 20 µM; IC50 [14]: 20 µM; IC50 [15]: 20 µM; IC50 (NCI-H226): 20 µM; IC50 (MDA-MB-231): 20 µM; IC50 [16]: 17.5 µM; IC50 (MFM-223): 11.6 µM; IC50 [17]: 20 µM; IC50 [19]: 20 µM; IC50 [20]: 20 µM
C/C=C/Cn1cc(-c2ccc(C(=O)N3CCOCC3)cc2)c2cc[nH]c2c1=O	0.9%	20 µM	10.2 µM	20 µM	13.9 µM	20 µM	-3.9%	20 µM	20 µM	20 µM	20 µM	20 µM	20 µM	> 10 µM	20 µM	20 µM	20 µM	2.9 µM	26 µM	3.4 µM	IC50 (LNCaP): 16.7 µM; IC50 (SUD4): 20 µM; IC50 (DB): 20 µM; Activity [8]: 4%; IC50 [9]: 20 µM; IC50 [10]: 8.35 µM; IC50 (HCC78): 20 µM; Activity [11]: 10%; IC50 [12]: 20 µM; inhibition [13]: 1.1%; IC50 (CAL-51): 20 µM; IC50 [14]: 20 µM; IC50 [15]: 20 µM; IC50 (NCI-H226): 20 µM; IC50 (MDA-MB-231): 20 µM; IC50 [16]: 20 µM; IC50 (MFM-223): 20 µM; IC50 [17]: 20 µM; IC50 [19]: 20 µM; IC50 [20]: 20 µM
C/C=C/Cn1cc(-c2cc(OC)c(C(=O)N3CCOCC3)cc2OC)c2cc(C)[nH]c2c1=O	3.5%	2 µM	2 µM	2 µM	2 µM	2 µM	-4.5%	2 µM	2 µM	2 µM	2 µM	2 µM	2 µM	> 10 µM	2 µM	2 µM	2 µM	> 10 µM	> 10 µM	> 20 µM	IC50 (LNCaP): 2 µM; IC50 (SUD4): 2 µM; IC50 (DB): 2 µM; Activity [8]: 12%; IC50 [9]: 2 µM; IC50 [10]: 0.54 µM; IC50 (HCC78): 2 µM; Activity [11]: -4%; IC50 [12]: 2 µM; inhibition [13]: 3%; IC50 (CAL-51): 2 µM; IC50 [14]: 2 µM; IC50 [15]: 2 µM; IC50 (NCI-H226): 2 µM; IC50 (MDA-MB-231): 2 µM; IC50 [16]: 2 µM; IC50 (MFM-223): 1.46 µM; IC50 [17]: 2 µM; IC50 [19]: 2 µM; IC50 [20]: 2 µM
C/C=C/Cn1cc(-c2cc(OC)c(C(C)(C)O)cc2OC)c2cc(C)[nH]c2c1=O														0.16 µM				6.2 µM	> 10 µM	> 20 µM	
